Values of other authors as cited in patent US10875826B2, “Process for the manufacture of SNAC (salcaprozate sodium)” (Emisphere Technologies, Inc., priority 2006, dated 2020).
Structures can show the parent of a compound that is named as a salt.

SMILES: CCCCCN(C)CCC(O)(P(=O)(O)O)P(=O)(O)O [Ibandronate sodium, 3-(N-methyl-N-pentyl)-amino-1-hydroxypropane-1,1-diphosphonic acid, monosodium salt, monohydrate]
- solubility in organic solvents (organic solvents): practically insoluble
- solubility in water (water): freely soluble
